Measurements as given in ChEMBL document CHEMBL1212740, “Long-lasting enfuvirtide carrier pentasaccharide conjugates with potent anti-human immunodeficiency virus type 1 activity” (Antimicrob Agents Chemother, 2010).

Key:
[1] = system: Human immunodeficiency virus 1; experiment: Antiviral activity against HIV1 BZ167 in human PBMC assessed as p24 antigen level by ELISA; assay type: functional, organism-based; conditions: Human immunodeficiency virus 1, BZ167
[2] = system: Human immunodeficiency virus 1; experiment: Antiviral activity against HIV1 NL4.3 in human PBMC assessed as p24 antigen level by ELISA; assay type: functional, organism-based; conditions: Human immunodeficiency virus 1, NL4.3
[3] = system: Human immunodeficiency virus 1; experiment: Antiviral activity against HIV1 ETH2220 in human PBMC assessed as p24 antigen level by ELISA; assay type: functional, organism-based; conditions: Human immunodeficiency virus 1, ETH2220
[4] = system: Human immunodeficiency virus 1; experiment: Antiviral activity against HIV1 DJ259 in human PBMC assessed as p24 antigen level by ELISA; assay type: functional, organism-based; conditions: Human immunodeficiency virus 1, DJ259
[5] = system: Human immunodeficiency virus 1; experiment: Antiviral activity against HIV1 UG273 clade A, R5 in human PBMC assessed as p24 antigen level by ELISA; assay type: functional, organism-based; conditions: Human immunodeficiency virus 1, UG273
[6] = system: Human immunodeficiency virus 1; experiment: Antiviral activity against HIV1 US2 clade B, R5 in human PBMC assessed as p24 antigen level by ELISA; assay type: functional, organism-based; conditions: Human immunodeficiency virus 1, US2
[7] = system: Human immunodeficiency virus 1; experiment: Antiviral activity against HIV1 strain I-2496 in human PBMC assessed as p24 antigen level by ELISA; assay type: functional, organism-based; conditions: Human immunodeficiency virus 1, I-2496
[8] = system: Human immunodeficiency virus 1; experiment: Antiviral activity against HIV1 Ba-L in human PBMC assessed as p24 antigen level by ELISA; assay type: functional, organism-based; conditions: Human immunodeficiency virus 1, Ba-L
[9] = system: Human immunodeficiency virus 1; experiment: Antiviral activity against HIV1 3B/LA1 infected in human CD4+ T-cell assessed as inhibition of giant cell formation; assay type: functional, organism-based; conditions: Human immunodeficiency virus 1, 3B/LA1, CD4+ T cell
[10] = system: Human immunodeficiency virus 1; experiment: Antiviral activity against HIV1 3B/LA1 infected in HUT-78 cells co-cultured with uninfected human SupT1 CD4+ T-cell assessed as inhibition of envelope mediated cell-cell fusion after 16-20 hrs by cell-cell fusion assay; assay type: functional, organism-based; conditions: Human immunodeficiency virus 1, 3B/LA1, HuT78
[11] = system: CCRF-CEM; experiment: Cytotoxicity against human CEM cells up to 100 uM by MTS assay; assay type: cell-based
[12] = system: PBMC; experiment: Cytotoxicity against human PBMC up to 100 uM by MTS assay; assay type: cell-based
[13] = system: Human immunodeficiency virus 2; experiment: Antiviral activity against Human immunodeficiency virus 2 ROD infected in human CD4+ T-cell assessed as inhibition of giant cell formation; assay type: functional, organism-based; conditions: Human immunodeficiency virus 2, ISOLATE ROD
[14] = Elimination half life in Wister rat at 4 mg/ kg, iv; assay type: ADME, organism-based; parameters: dose 4 mg/ kg, route intravenous; conditions: Wistar, in vivo

Molecule | EC50 [1] [nM] | EC50 [2] [nM] | EC50 [3] [nM] | EC50 [4] [nM] | EC50 [5] [nM] | EC50 [6] [nM] | EC50 [7] [nM] | EC50 [8] [nM] | EC50 [9] [nM] | EC50 [10] [nM] | Activity [11] | Activity [12] | EC50 [13] [nM] | half-life [14] [h]
Cc1nnc(C(C)C)n1[C@H]1C[C@H]2CC[C@@H](C1)N2CC[C@H](NC(=O)C1CCC(F)(F)CC1)c1ccccc1 [MARAVIROC] | > 1000 | > 1000 | 3.6 | 3.7 | 2.6 | 0.3 | 0.4 | 3.8 | – | – | – | – | – | –
c1cc(CN2CCCNCCNCCCNCC2)ccc1CN1CCCNCCNCCCNCC1 [PLERIXAFOR] | 18.5 | 3.6 | > 1000 | > 1000 | > 1000 | > 1000 | > 1000 | > 1000 | – | – | – | – | – | –
enfuvirtide | 17.9 | 3.6 | 17.7 | 17.9 | 55.9 | 6.3 | 12.4 | 17.9 | 3 | 275 | Toxic | Toxic | 360 | 2.8
